Laboratory results published in ChEMBL document CHEMBL1152141, “Pyrrolo-pyrimidones: a novel class of MK2 inhibitors with potent cellular activity” (Bioorg Med Chem Lett, 2008).
Values after ≈ are worked out from the molar mass of the structure shown. One block for each molecule: values may come before it.

Experiments:
PBMC = test: Inhibition of LPS-stimulated TNFalpha release from human PBMC after 3 hrs
[1] = Thermodynamic solubility at pH 6.8; format: physicochemical; conditions: buffer
[2] = target: Heat shock protein beta-1 (Homo sapiens) (UniProt P04792); test: Inhibition of LPS-stimulated hsp27 phosphorylation in 1 hr pretreated human THP1 cells by Western blot; format: cell-based; conditions: THP-1
[3] = target: ALK tyrosine kinase receptor (Homo sapiens, UniProt Q9UM73); test: Inhibition of Alk
Aurora kinase A = Aurora kinase A (Homo sapiens, UniProt O14965); test: Inhibition of Aurora A
Chain of Aurora kinase A (O14965 whole entry): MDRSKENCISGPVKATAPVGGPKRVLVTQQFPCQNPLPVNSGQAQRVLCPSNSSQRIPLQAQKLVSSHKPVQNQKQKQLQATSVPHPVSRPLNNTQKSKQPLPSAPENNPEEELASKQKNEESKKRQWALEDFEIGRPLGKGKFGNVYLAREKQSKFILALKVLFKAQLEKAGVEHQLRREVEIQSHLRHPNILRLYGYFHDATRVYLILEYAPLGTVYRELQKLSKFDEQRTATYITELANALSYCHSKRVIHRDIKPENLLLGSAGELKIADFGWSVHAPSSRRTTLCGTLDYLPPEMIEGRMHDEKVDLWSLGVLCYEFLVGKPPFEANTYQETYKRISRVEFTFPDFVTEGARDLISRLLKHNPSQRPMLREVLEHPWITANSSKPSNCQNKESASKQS

[4] = target: Tyrosine-protein kinase BTK (Homo sapiens, UniProt Q06187); test: Inhibition of Btk
Chain of Tyrosine-protein kinase BTK (Q06187 whole entry): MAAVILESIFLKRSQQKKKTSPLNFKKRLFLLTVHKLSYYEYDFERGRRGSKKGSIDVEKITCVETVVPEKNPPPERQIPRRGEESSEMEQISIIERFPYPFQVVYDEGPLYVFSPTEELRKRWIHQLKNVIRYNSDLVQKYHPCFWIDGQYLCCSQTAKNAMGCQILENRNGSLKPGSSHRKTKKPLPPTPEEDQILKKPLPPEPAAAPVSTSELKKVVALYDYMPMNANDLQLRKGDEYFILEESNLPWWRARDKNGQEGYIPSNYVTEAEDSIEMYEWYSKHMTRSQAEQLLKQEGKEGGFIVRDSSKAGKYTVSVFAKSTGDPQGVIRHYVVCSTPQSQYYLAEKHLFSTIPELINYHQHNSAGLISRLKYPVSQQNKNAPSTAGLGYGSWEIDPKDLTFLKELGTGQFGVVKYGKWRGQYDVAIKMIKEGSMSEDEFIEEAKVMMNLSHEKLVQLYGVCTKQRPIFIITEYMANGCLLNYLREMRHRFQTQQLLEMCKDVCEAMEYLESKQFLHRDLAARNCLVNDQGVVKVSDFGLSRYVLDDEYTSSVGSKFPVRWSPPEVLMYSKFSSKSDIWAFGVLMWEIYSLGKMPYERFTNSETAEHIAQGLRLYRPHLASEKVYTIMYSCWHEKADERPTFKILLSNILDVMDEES

[5] = target: Cyclin-dependent kinase 2 (Homo sapiens, UniProt P24941); test: Inhibition of CDK2
[6] = target: Mitogen-activated protein kinase 1 (Homo sapiens, UniProt P28482); test: Inhibition of ERK2
Ephrin type-A receptor 4 = Ephrin type-A receptor 4 (Homo sapiens, UniProt P54764); test: Inhibition of EphA4
Ephrin type-B receptor 4 = Ephrin type-B receptor 4 (Homo sapiens, UniProt P54760); test: Inhibition of EphB4
[7] = target: Fibroblast growth factor receptor 4 (Homo sapiens, UniProt P22455); test: Inhibition of FGFR4
[8] = target: Glycogen synthase kinase-3 beta (Homo sapiens, UniProt P49841); test: Inhibition of GSK3b
[9] = target: Receptor tyrosine-protein kinase erbB-2 (Homo sapiens, UniProt P04626); test: Inhibition of HER2
Chain of Receptor tyrosine-protein kinase erbB-2 (P04626 whole entry): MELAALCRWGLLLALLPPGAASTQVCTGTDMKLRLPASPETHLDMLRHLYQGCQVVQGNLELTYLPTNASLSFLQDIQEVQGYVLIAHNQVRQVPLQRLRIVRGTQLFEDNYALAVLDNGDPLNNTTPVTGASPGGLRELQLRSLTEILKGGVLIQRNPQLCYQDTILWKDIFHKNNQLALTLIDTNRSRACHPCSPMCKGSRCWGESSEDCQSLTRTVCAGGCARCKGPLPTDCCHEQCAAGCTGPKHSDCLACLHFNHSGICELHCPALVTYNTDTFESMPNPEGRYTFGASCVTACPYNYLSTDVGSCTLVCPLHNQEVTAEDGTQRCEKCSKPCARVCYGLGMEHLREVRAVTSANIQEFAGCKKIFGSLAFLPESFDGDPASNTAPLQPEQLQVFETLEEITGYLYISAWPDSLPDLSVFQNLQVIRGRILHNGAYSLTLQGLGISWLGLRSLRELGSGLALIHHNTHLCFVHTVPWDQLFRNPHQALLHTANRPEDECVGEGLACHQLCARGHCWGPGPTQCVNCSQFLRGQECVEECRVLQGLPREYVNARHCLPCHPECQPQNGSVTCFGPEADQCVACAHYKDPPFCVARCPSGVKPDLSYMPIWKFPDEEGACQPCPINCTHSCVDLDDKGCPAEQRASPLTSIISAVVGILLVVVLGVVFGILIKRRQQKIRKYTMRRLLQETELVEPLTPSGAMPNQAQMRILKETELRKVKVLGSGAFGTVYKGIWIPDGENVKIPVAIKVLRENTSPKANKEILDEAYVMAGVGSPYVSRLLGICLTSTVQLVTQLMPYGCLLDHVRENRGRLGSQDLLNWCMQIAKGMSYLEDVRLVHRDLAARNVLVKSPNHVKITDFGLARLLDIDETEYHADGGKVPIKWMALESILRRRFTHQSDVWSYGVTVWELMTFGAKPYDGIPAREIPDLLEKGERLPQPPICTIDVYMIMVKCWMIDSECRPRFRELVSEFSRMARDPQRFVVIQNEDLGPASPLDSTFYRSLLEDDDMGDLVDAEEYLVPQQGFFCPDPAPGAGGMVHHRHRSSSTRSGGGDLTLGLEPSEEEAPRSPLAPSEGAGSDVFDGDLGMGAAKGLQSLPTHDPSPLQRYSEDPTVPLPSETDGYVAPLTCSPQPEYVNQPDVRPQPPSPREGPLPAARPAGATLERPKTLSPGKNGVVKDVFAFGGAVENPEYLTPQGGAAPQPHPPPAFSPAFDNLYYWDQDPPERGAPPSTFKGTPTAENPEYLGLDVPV

[10] = target: Insulin-like growth factor 1 receptor (Homo sapiens, UniProt P08069); test: Inhibition of IGF1R
Insulin receptor = Insulin receptor (Homo sapiens, UniProt P06213); test: Inhibition of Ins1R
Chain of Insulin receptor (P06213 28-758 limits assumed): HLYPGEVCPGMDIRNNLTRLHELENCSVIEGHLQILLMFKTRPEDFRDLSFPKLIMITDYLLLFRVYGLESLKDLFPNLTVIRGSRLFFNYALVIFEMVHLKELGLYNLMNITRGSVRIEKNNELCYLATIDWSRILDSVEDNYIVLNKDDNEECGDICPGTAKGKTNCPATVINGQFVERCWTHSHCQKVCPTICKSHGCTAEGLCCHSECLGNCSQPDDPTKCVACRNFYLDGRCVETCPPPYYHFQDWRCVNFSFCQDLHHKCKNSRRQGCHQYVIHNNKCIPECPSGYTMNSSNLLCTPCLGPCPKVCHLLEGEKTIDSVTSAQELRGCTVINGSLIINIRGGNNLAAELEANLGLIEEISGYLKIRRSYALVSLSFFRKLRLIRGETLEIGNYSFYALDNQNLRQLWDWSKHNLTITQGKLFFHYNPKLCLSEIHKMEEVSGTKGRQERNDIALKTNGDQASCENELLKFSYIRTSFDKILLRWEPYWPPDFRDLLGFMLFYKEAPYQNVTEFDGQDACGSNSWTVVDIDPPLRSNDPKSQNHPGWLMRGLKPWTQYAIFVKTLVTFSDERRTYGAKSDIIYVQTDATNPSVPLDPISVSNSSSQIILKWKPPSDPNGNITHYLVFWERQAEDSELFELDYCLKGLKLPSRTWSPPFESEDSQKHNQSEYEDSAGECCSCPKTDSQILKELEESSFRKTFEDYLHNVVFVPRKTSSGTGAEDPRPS
Chain of Insulin receptor (P06213 763-1382 limits assumed): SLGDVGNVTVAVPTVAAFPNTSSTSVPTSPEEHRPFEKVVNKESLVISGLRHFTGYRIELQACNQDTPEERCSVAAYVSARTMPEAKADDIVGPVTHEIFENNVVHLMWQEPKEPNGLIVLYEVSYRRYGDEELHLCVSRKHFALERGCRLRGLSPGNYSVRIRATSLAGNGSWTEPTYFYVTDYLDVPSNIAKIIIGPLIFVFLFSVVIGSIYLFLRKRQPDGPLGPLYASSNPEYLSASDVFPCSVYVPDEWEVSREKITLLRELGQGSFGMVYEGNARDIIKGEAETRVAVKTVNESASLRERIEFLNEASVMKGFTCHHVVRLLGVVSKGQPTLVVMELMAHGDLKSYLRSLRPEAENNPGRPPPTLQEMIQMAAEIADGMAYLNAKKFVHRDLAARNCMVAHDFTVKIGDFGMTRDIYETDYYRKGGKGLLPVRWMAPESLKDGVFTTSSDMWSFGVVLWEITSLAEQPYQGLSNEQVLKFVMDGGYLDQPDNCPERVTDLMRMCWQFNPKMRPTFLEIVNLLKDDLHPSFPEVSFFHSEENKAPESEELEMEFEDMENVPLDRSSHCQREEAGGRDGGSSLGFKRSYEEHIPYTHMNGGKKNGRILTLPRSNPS

[11] = target: Tyrosine-protein kinase JAK2 (Homo sapiens, UniProt O60674); test: Inhibition of JAK2
[12] = target: Tyrosine-protein kinase JAK3 (Homo sapiens, UniProt P52333); test: Inhibition of JAK3
[13] = target: Mitogen-activated protein kinase 8 (Homo sapiens, UniProt P45983); test: Inhibition of JNK1
[14] = target: Mitogen-activated protein kinase 9 (Homo sapiens, UniProt P45984); test: Inhibition of JNK2
[15] = target: Vascular endothelial growth factor receptor 2 (Homo sapiens, UniProt P35968); test: Inhibition of KDR
Chain of Vascular endothelial growth factor receptor 2 (P35968 whole entry): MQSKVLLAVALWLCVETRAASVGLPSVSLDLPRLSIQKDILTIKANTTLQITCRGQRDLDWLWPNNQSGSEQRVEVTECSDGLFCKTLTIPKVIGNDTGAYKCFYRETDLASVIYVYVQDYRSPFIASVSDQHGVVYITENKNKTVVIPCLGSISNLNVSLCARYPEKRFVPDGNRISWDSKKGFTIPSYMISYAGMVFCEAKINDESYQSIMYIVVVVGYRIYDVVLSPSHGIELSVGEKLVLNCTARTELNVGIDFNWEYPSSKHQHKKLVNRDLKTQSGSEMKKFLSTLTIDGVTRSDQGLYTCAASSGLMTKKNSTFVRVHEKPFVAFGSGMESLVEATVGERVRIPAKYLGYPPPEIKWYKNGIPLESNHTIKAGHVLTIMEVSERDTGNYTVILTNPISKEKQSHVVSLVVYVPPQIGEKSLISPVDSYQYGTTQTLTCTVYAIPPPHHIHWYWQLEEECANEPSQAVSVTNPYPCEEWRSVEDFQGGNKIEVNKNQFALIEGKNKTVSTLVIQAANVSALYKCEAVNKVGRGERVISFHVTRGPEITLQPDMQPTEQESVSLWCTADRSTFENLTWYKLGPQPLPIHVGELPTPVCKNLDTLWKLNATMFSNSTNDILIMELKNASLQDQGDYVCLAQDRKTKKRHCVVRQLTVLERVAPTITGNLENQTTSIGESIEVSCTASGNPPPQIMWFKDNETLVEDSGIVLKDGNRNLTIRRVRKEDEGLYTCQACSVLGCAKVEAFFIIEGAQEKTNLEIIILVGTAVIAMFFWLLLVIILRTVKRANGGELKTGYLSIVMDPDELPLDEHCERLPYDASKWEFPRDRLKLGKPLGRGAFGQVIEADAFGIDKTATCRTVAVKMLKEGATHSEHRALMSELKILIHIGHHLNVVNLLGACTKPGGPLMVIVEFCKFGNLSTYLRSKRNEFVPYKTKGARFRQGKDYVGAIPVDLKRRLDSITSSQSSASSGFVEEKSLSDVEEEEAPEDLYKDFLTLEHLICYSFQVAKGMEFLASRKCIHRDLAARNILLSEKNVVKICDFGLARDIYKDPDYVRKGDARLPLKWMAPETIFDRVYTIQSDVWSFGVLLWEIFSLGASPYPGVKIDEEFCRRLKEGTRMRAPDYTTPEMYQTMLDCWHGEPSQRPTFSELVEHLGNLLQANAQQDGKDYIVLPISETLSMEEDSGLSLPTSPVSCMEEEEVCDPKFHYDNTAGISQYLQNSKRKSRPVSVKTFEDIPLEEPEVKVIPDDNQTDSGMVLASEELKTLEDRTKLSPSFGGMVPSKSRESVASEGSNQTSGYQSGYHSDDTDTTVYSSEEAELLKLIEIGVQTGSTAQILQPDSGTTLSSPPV

[16] = target: MAP kinase-activated protein kinase 5 (Homo sapiens, UniProt Q8IW41); test: Inhibition of MK5
[17] = Inhibition of PKA
[18] = target: RAC-alpha serine/threonine-protein kinase (Homo sapiens, UniProt P31749); test: Inhibition of PKB
[19] = target: Mast/stem cell growth factor receptor Kit (Homo sapiens, UniProt P10721); test: Inhibition of c-Kit
[20] = target: Hepatocyte growth factor receptor (Homo sapiens, UniProt P08581); test: Inhibition of c-Met
MAP kinase p38 = MAP kinase p38 (Homo sapiens, UniProt O15264+Q15759+Q16539+P53778); test: Inhibition of human p38; format: protein assay
[21] = target: MAP kinase-activated protein kinase 2 (Homo sapiens, UniProt P49137)
[22] = target: Epidermal growth factor receptor (Homo sapiens, UniProt P00533)
[23] = target: Tyrosine-protein kinase SYK (Homo sapiens, UniProt P43405)

Structure (SMILES): COc1ccc(-c2cc(-c3cc4c(=O)[nH]cnc4[nH]3)ccn2)cc1
- IC50 (PBMC): > 10 µM

Structure (SMILES): CN(C)CCOc1ccc(/C=C/c2cc(-c3cc4c(=O)[nH]cnc4[nH]3)ccn2)cc1
- solubility thermodynamic [1]: 410 µg/mL (≈ 1020 µM)
- Activity [2]: Dose-dependent effect
- IC50 [3]: 4.1 µM
- IC50 (Aurora kinase A): 0.28 µM
- IC50 [4]: > 10 µM
- IC50 [5]: 8.2 µM
- IC50 [6]: 2.6 µM
- IC50 (Ephrin type-A receptor 4): 5.6 µM
- IC50 (Ephrin type-B receptor 4): 1.4 µM
- IC50 [7]: 6.8 µM
- IC50 [8]: 0.53 µM
- IC50 [9]: 9.5 µM
- IC50 [10]: 6.4 µM
- IC50 (Insulin receptor): 7.8 µM
- IC50 [11]: 3.6 µM
- IC50 [12]: 1 µM
- IC50 [13]: 0.96 µM
- IC50 [14]: 0.24 µM
- IC50 [15]: 0.19 µM
- IC50 [16]: 0.028 µM
- IC50 [17]: > 10 µM
- IC50 [18]: > 10 µM
- IC50 [19]: 6.1 µM
- IC50 [20]: 0.14 µM
- IC50 (MAP kinase p38): > 10 µM
- IC50 (PBMC): 0.04 µM
- IC50 [21]: 0.082 µM
- IC50 [22]: 3.3 µM

Structure (SMILES): Cc1nc2[nH]c(-c3ccnc(/C=C/c4ccccc4)c3)cc2c(=O)[nH]1
- IC50 (PBMC): 1.1 µM

Structure (SMILES): O=C(Nc1cc(-c2cc3c(=O)[nH]cnc3[nH]2)ccn1)c1ccc(C2CCCC2)cc1
- IC50 (PBMC): 10 µM

- solubility thermodynamic [1]: 41 µg/mL (≈ 99.2 µM)
- Activity [2]: Dose-dependent effect
- IC50 [3]: > 10 µM
- IC50 (Aurora kinase A): 0.093 µM
- IC50 [4]: > 10 µM
- IC50 [5]: > 10 µM
- IC50 [6]: 1.1 µM
- IC50 (Ephrin type-A receptor 4): > 10 µM
- IC50 (Ephrin type-B receptor 4): 1.7 µM
- IC50 [7]: > 10 µM
- IC50 [8]: 0.3 µM
- IC50 [9]: > 10 µM
- IC50 [10]: > 10 µM
- IC50 (Insulin receptor): > 10 µM
- IC50 [11]: 1.3 µM
- IC50 [12]: 0.31 µM
- IC50 [13]: 4 µM
- IC50 [14]: 0.95 µM
- IC50 [15]: 0.1 µM
- IC50 [16]: 0.024 µM
- IC50 [17]: 6.7 µM
- IC50 [18]: > 10 µM
- IC50 [19]: 5.2 µM
- IC50 [20]: 0.085 µM
- IC50 (MAP kinase p38): > 10 µM
- IC50 [21]: 0.051 µM
- IC50 [23]: 6.2 µM
Structure (SMILES): O=c1[nH]cnc2[nH]c(-c3ccnc(/C=C/c4ccc(CN5CCOCC5)cc4)c3)cc12
- IC50 (PBMC): 0.11 µM

Structure (SMILES): O=c1[nH]c(Cc2ccccc2)nc2[nH]c(-c3ccnc(/C=C/c4ccccc4)c3)cc12
- IC50 (PBMC): > 10 µM

Structure (SMILES): Nc1nc2[nH]c(-c3ccnc(/C=C/c4ccccc4)c3)cc2c(=O)[nH]1
- IC50 (PBMC): 1.5 µM

- solubility thermodynamic [1]: 9 µg/mL (≈ 21.1 µM)
Structure (SMILES): O=C(c1ccc(/C=C/c2cc(-c3cc4c(=O)[nH]cnc4[nH]3)ccn2)cc1)N1CCOCC1
- IC50 (PBMC): 0.15 µM

- solubility thermodynamic [1]: 3 µg/mL (≈ 9.03 µM)
Structure (SMILES): O=c1[nH]cnc2[nH]c(-c3ccnc(/C=C/c4ccc(F)cc4)c3)cc12
- IC50 (PBMC): 0.35 µM

Structure (SMILES): O=c1[nH]cnc2[nH]c(-c3ccnc(/C=C/c4ccccc4)c3)cc12
- IC50 (PBMC): 2.3 µM

Structure (SMILES): CCN(CC)Cc1ccc(/C=C/c2cc(-c3cc4c(=O)[nH]cnc4[nH]3)ccn2)cc1
- IC50 (PBMC): 0.38 µM
